# Laboratory results as given in ChEMBL document CHEMBL1201861, “Genomics of Drug Sensitity in Cancer screening data, Wellcome Trust Sanger Institute”.
# Experiments:
# Assay in all cases: cells
# BT-474 = assay type: functional, cell-based, Homo sapiens; conditions: Homo sapiens, BT-474
# Description: SANGER: Inhibition of human BT-474 cell growth in a cell viability assay.
# LB771-HNC = assay type: functional, cell-based, Homo sapiens; conditions: Homo sapiens, LB771-HNC;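 note: growth inhibition of LB771-HNC human cells, read out with a cell viability assay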
# Description: SANGER: Inhibition of human LB771-HNC cell growth in a cell viability assay.
# LK-2 = assay type: functional, cell-based, Homo sapiens; conditions: Homo sapiens, LK-2;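 note: growth inhibition of LK-2 cells, read out with a viability assay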
# Description: SANGER: Inhibition of human LK-2 cell growth in a cell viability assay.
# 8305C = assay type: functional, cell-based, Homo sapiens; conditions: Homo sapiens, 8305C
# Description: SANGER: Inhibition of human 8305C cell growth in a cell viability assay.
# SK-N-AS = assay type: functional, cell-based, Homo sapiens; conditions: Homo sapiens, SK-N-AS;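 note: growth inhibition of human SK-N-AS cells, measured with a cell viability assay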
# Description: SANGER: Inhibition of human SK-N-AS cell growth in a cell viability assay.
# LS-123 = assay type: functional, cell-based, Homo sapiens; conditions: Homo sapiens, LS-123
# Description: SANGER: Inhibition of human LS-123 cell growth in a cell viability assay.
# A101D = assay type: functional, cell-based, Homo sapiens; conditions: Homo sapiens, A101D;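 note: growth inhibition of the cell line, measured with a viability assay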
# Description: SANGER: Inhibition of human A101D cell growth in a cell viability assay.
# RPMI-7951 = assay type: functional, cell-based, Homo sapiens; conditions: Homo sapiens, RPMI-7951
# Description: SANGER: Inhibition of human RPMI-7951 cell growth in a cell viability assay.
# HCC1187 = assay type: functional, cell-based, Homo sapiens; conditions: Homo sapiens, HCC1187;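 note: growth inhibition of HCC1187 cells, read out with a cell viability assay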
# Description: SANGER: Inhibition of human HCC1187 cell growth in a cell viability assay.
# ES1 = assay type: functional, cell-based, Homo sapiens; conditions: Homo sapiens, ES1;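 note: growth inhibition of ES1 cells, read out with a cell viability assay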
# Description: SANGER: Inhibition of human ES1 cell growth in a cell viability assay.
# T84 = assay type: functional, cell-based, Homo sapiens; conditions: Homo sapiens, T84;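 note: growth inhibition measured with a cell viability readout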
# Description: SANGER: Inhibition of human T84 cell growth in a cell viability assay.
# RPMI-8226 = assay type: functional, cell-based; conditions: Homo sapiens
# Description: SANGER: Inhibition of human RPMI-8226 cell growth in a cell viability assay.
# U-266 = assay type: functional, cell-based; conditions: Homo sapiens
# Description: SANGER: Inhibition of human U-266 cell growth in a cell viability assay.
# HCE-4 = assay type: functional, cell-based, Homo sapiens; conditions: Homo sapiens, HCE-4;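 note: cell viability assay measuring inhibition of growth in the human HCE-4 cell line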
# Description: SANGER: Inhibition of human HCE-4 cell growth in a cell viability assay.
# NCI-H69 = assay type: functional, cell-based; conditions: Homo sapiens;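 note: growth inhibition of the cell line, read out with a cell viability assay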
# Description: SANGER: Inhibition of human NCI-H69 cell growth in a cell viability assay.
# SK-UT-1 = assay type: functional, cell-based, Homo sapiens; conditions: Homo sapiens, SK-UT-1;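 note: growth inhibition of SK-UT-1 cells, measured by a cell viability assay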
# Description: SANGER: Inhibition of human SK-UT-1 cell growth in a cell viability assay.
# MSTO-211H = assay type: functional, cell-based, Homo sapiens; conditions: Homo sapiens, MSTO-211H
# Description: SANGER: Inhibition of human MSTO-211H cell growth in a cell viability assay.
# NCI-H720 = assay type: functional, cell-based; conditions: Homo sapiens;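 note: growth inhibition of human NCI-H720 cells determined by a cell viability assay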
# Description: SANGER: Inhibition of human NCI-H720 cell growth in a cell viability assay.
# JVM-2 = assay type: functional, cell-based; conditions: Homo sapiens;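 note: growth inhibition of JVM-2 cells determined by a cell viability assay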
# Description: SANGER: Inhibition of human JVM-2 cell growth in a cell viability assay.
# M14 = assay type: functional, cell-based, Homo sapiens; conditions: Homo sapiens, M14;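 note: growth inhibition of M14 cells, read out with a cell viability assay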
# Description: SANGER: Inhibition of human M14 cell growth in a cell viability assay.
# HN = assay type: functional, cell-based, Homo sapiens; conditions: Homo sapiens, HN
# Description: SANGER: Inhibition of human HN cell growth in a cell viability assay.
# RO82-W-1 = assay type: functional, cell-based, Homo sapiens; conditions: Homo sapiens, RO82-W-1;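 note: growth inhibition of human RO82-W-1 cells, measured with a cell viability assay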
# Description: SANGER: Inhibition of human RO82-W-1 cell growth in a cell viability assay.
# NCI-H2347 = assay type: functional, cell-based, Homo sapiens; conditions: Homo sapiens, NCI-H2347;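 note: growth inhibition of the cell line, read out with a cell viability assay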
# Description: SANGER: Inhibition of human NCI-H2347 cell growth in a cell viability assay.
# CAS-1 = assay type: functional, cell-based, Homo sapiens; conditions: Homo sapiens, CAS-1;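 note: growth inhibition of CAS-1 cells, measured with a cell viability assay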
# Description: SANGER: Inhibition of human CAS-1 cell growth in a cell viability assay.
# NB14 = assay type: functional, cell-based; conditions: Homo sapiens;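 note: growth inhibition of NB14 cells measured with a cell viability assay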
# Description: SANGER: Inhibition of human NB14 cell growth in a cell viability assay.
# Becker = assay type: functional, cell-based, Homo sapiens; conditions: Homo sapiens, Becker;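 note: growth inhibition of Becker cells, read out with a cell viability assay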
# Description: SANGER: Inhibition of human Becker cell growth in a cell viability assay.
# SK-N-FI = assay type: functional, cell-based, Homo sapiens; conditions: Homo sapiens, SK-N-FI;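 note: cell viability assay measuring growth inhibition of human SK-N-FI cells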
# Description: SANGER: Inhibition of human SK-N-FI cell growth in a cell viability assay.
# HOP-62 = assay type: functional, cell-based, Homo sapiens; conditions: Homo sapiens, HOP-62;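 note: cell growth inhibition determined with a viability assay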
# Description: SANGER: Inhibition of human HOP-62 cell growth in a cell viability assay.
# HuCCT-1 = assay type: functional, cell-based, Homo sapiens, HuCCT1; conditions: Homo sapiens, HuCCT-1;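 note: growth inhibition of HuCCT-1 cells, read out by a cell viability assay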
# Description: SANGER: Inhibition of human HuCCT1 cell growth in a cell viability assay.
# MKN-28 = assay type: functional, cell-based, Homo sapiens; conditions: Homo sapiens, MKN-28;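 note: cell viability assay read-out, IC50 reflects suppression of growth of human MKN-28 cells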
# Description: SANGER: Inhibition of human MKN28 cell growth in a cell viability assay.
# CAMA-1 = assay type: functional, cell-based, Homo sapiens; conditions: Homo sapiens, CAMA-1;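 note: growth inhibition of CAMA-1 cells, read out with a cell viability assay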
# Description: SANGER: Inhibition of human CAMA-1 cell growth in a cell viability assay.
# RPMI-2650 = assay type: functional, cell-based, Homo sapiens; conditions: Homo sapiens, RPMI-2650
# Description: SANGER: Inhibition of human RPMI-2650 cell growth in a cell viability assay.
# SW982 = assay type: functional, cell-based; conditions: Homo sapiens;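 note: growth inhibition of SW982 cells, read out with a cell viability assay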
# Description: SANGER: Inhibition of human SW982 cell growth in a cell viability assay.
# UACC-893 = assay type: functional, cell-based, Homo sapiens; conditions: Homo sapiens, UACC-893
# Description: SANGER: Inhibition of human UACC-893 cell growth in a cell viability assay.
# CAPAN-1 = assay type: functional, cell-based, Homo sapiens; conditions: Homo sapiens, CAPAN-1;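 note: growth suppression of CAPAN-1 cells, read out by a cell viability assay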
# Description: SANGER: Inhibition of human CAPAN-1 cell growth in a cell viability assay.
# Panc1005 = assay type: functional, cell-based, Homo sapiens; conditions: Homo sapiens, Panc1005;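 note: growth inhibition of human PANC-10-05 cells, measured by a cell viability assay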
# Description: SANGER: Inhibition of human PANC-10-05 cell growth in a cell viability assay.
# AGS = assay type: functional, cell-based, Homo sapiens; conditions: Homo sapiens, AGS;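 note: growth inhibition of AGS cells, determined with a cell viability assay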
# Description: SANGER: Inhibition of human AGS cell growth in a cell viability assay.
# D-247MG = assay type: functional, cell-based, Homo sapiens; conditions: Homo sapiens, D-247MG
# Description: SANGER: Inhibition of human D-247MG cell growth in a cell viability assay.
# EW-11 = assay type: functional, cell-based, Homo sapiens; conditions: Homo sapiens, EW-11;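 note: growth inhibition of human EW-11 cells, measured with a cell viability assay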
# Description: SANGER: Inhibition of human EW-11 cell growth in a cell viability assay.
# SF-539 = assay type: functional, cell-based, Homo sapiens; conditions: Homo sapiens, SF-539;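 note: Read-out is a cell viability assay, with IC50 reflecting inhibition of cell growth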
# Description: SANGER: Inhibition of human SF539 cell growth in a cell viability assay.
# MDA-MB-415 = assay type: functional, cell-based; conditions: Homo sapiens
# AU565 = assay type: functional, cell-based, Homo sapiens; conditions: Homo sapiens, AU565;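 note: cell viability assay measuring growth inhibition of human AU565 cells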
# Description: SANGER: Inhibition of human AU565 cell growth in a cell viability assay.
# HCC2218 = assay type: functional, cell-based; conditions: Homo sapiens;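 note: cell viability assay read-out, with IC50 given as the concentration that inhibits growth of the cell line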
# Description: SANGER: Inhibition of human HCC2218 cell growth in a cell viability assay.
# NCI-H2342 = assay type: functional, cell-based; conditions: Homo sapiens;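 note: growth inhibition of the cancer cell line, determined with a cell viability assay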
# Description: SANGER: Inhibition of human NCI-H2342 cell growth in a cell viability assay.
# P12-Ichikawa = assay type: functional, cell-based; conditions: Homo sapiens
# SCC-4 = assay type: functional, cell-based, Homo sapiens; conditions: Homo sapiens, SCC-4;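 note: growth inhibition of human SCC-4 cells, read out as cell viability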
# Description: SANGER: Inhibition of human SCC-4 cell growth in a cell viability assay.
# ABC-1 = assay type: functional, cell-based, Homo sapiens; conditions: Homo sapiens, ABC-1;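 note: growth inhibition of human ABC-1 cells, read out by a cell viability assay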
# Description: SANGER: Inhibition of human ABC-1 cell growth in a cell viability assay.
# EW-1 = assay type: functional, cell-based, Homo sapiens; conditions: Homo sapiens, EW-1
# Description: SANGER: Inhibition of human EW-1 cell growth in a cell viability assay.
# CAL-27 = assay type: functional, cell-based, Homo sapiens; conditions: Homo sapiens, CAL-27;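 note: Viability-based readout, IC50 reflecting inhibition of CAL-27 cell growth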
# Description: SANGER: Inhibition of human CAL-27 cell growth in a cell viability assay.
# FaDu = assay type: functional, cell-based, Homo sapiens; conditions: Homo sapiens, FaDu;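 note: cell viability readout of growth inhibition in FaDu cells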
# Description: SANGER: Inhibition of human FADU cell growth in a cell viability assay.
# NY = assay type: functional, cell-based, Homo sapiens; conditions: Homo sapiens, NY
# Description: SANGER: Inhibition of human NY cell growth in a cell viability assay.
compound,measurement,setting,value
CCOc1nc(NC(=O)Cc2cc(OC)ccc2OC)cc(N)c1C#N,IC50,BT-474,> 10 µM
same,IC50,LB771-HNC,> 10 µM
same,IC50,LK-2,> 10 µM
same,IC50,8305C,> 10 µM
same,IC50,SK-N-AS,> 10 µM
same,IC50,LS-123,> 10 µM
same,IC50,A101D,> 10 µM
same,IC50,RPMI-7951,> 10 µM
same,IC50,HCC1187,> 10 µM
same,IC50,ES1,> 10 µM
same,IC50,T84,> 10 µM
same,IC50,RPMI-8226,> 10 µM
same,IC50,U-266,> 10 µM
same,IC50,HCE-4,> 10 µM
same,IC50,NCI-H69,> 10 µM
same,IC50,SK-UT-1,> 10 µM
same,IC50,MSTO-211H,> 10 µM
same,IC50,NCI-H720,> 10 µM
same,IC50,JVM-2,> 10 µM
same,IC50,M14,> 10 µM
same,IC50,HN,> 10 µM
same,IC50,RO82-W-1,> 10 µM
same,IC50,NCI-H2347,> 10 µM
same,IC50,CAS-1,> 10 µM
same,IC50,NB14,> 10 µM
same,IC50,Becker,> 10 µM
same,IC50,SK-N-FI,> 10 µM
same,IC50,HOP-62,> 10 µM
same,IC50,HuCCT-1,> 10 µM
same,IC50,MKN-28,> 10 µM
same,IC50,CAMA-1,> 10 µM
same,IC50,RPMI-2650,> 10 µM
same,IC50,SW982,> 10 µM
same,IC50,UACC-893,> 10 µM
same,IC50,CAPAN-1,> 10 µM
same,IC50,Panc1005,> 10 µM
same,IC50,AGS,> 10 µM
same,IC50,D-247MG,> 10 µM
same,IC50,EW-11,> 10 µM
same,IC50,SF-539,> 10 µM
same,IC50,MDA-MB-415,> 10 µM
same,IC50,AU565,> 10 µM
same,IC50,HCC2218,> 10 µM
same,IC50,NCI-H2342,> 10 µM
same,IC50,P12-Ichikawa,> 10 µM
same,IC50,SCC-4,> 10 µM
same,IC50,ABC-1,> 10 µM
same,IC50,EW-1,> 10 µM
same,IC50,CAL-27,> 10 µM
same,IC50,FaDu,> 10 µM
same,IC50,NY,> 10 µM
CC(=O)O[C@@H]1[C@@H](OC(C)=O)[C@@H](O)[C@H](Oc2c(-c3ccc(O)cc3)oc3cc(O)cc(O)c3c2=O)O[C@H]1C,IC50,BT-474,> 10 µM
same,IC50,LB771-HNC,> 10 µM
same,IC50,LK-2,> 10 µM
same,IC50,8305C,> 10 µM
same,IC50,SK-N-AS,> 10 µM
same,IC50,LS-123,> 10 µM
same,IC50,A101D,> 10 µM
same,IC50,RPMI-7951,> 10 µM
same,IC50,HCC1187,> 10 µM
same,IC50,ES1,> 10 µM
same,IC50,T84,> 10 µM
same,IC50,RPMI-8226,> 10 µM
same,IC50,U-266,> 10 µM
same,IC50,HCE-4,> 10 µM
same,IC50,NCI-H69,> 10 µM
same,IC50,SK-UT-1,> 10 µM
same,IC50,MSTO-211H,> 10 µM
same,IC50,NCI-H720,> 10 µM
same,IC50,JVM-2,> 10 µM
same,IC50,M14,> 10 µM
same,IC50,HN,> 10 µM
same,IC50,RO82-W-1,> 10 µM
same,IC50,NCI-H2347,> 10 µM
same,IC50,CAS-1,> 10 µM
same,IC50,NB14,> 10 µM
same,IC50,Becker,> 10 µM
same,IC50,SK-N-FI,> 10 µM
same,IC50,HOP-62,> 10 µM
same,IC50,HuCCT-1,> 10 µM
same,IC50,MKN-28,> 10 µM
same,IC50,CAMA-1,> 10 µM
same,IC50,RPMI-2650,> 10 µM
same,IC50,SW982,> 10 µM
same,IC50,UACC-893,> 10 µM
same,IC50,CAPAN-1,> 10 µM
same,IC50,Panc1005,> 10 µM
same,IC50,AGS,> 10 µM
same,IC50,D-247MG,> 10 µM
same,IC50,EW-11,> 10 µM
same,IC50,SF-539,> 10 µM
same,IC50,MDA-MB-415,> 10 µM
same,IC50,AU565,> 10 µM
same,IC50,HCC2218,3.84 µM
same,IC50,NCI-H2342,> 10 µM
same,IC50,P12-Ichikawa,> 10 µM
same,IC50,SCC-4,> 10 µM
same,IC50,ABC-1,> 10 µM
same,IC50,EW-1,> 10 µM
same,IC50,CAL-27,> 10 µM
same,IC50,FaDu,> 10 µM
same,IC50,NY,> 10 µM
